From patent publication US8124793B2, “Derivatives of ethylene methanedisulfonate as cancer chemotherapeutic agents” (priority 2007, dated 2012)

Key:
Format in all cases: cell-based
OVCAR-3 = experiment: NCI screen, growth of human tumor cells: Ovarian Cancer OVCAR-3; conditions: OVCAR-3 (Ovarian Cancer), 10^−4 molar
Experimental: (§1) In the NCI screening process, each compound was tested and described by a minimum of 60 data points. The test data include, but are not limited to the type of cancer, the molar concentration used in the screen, and the percent growth of the cancer. In some cases, NMR and elemental analysis were used for structural assignment.

RXF-393 = experiment: NCI screen, growth of human tumor cells: Renal Cancer RXF-393
Experimental: as §1

human cancer cells = experiment: NCI screen summary over the cancers tested (negative growth of human cancer cells); conditions: 10^−4 M conc.; cancers with negative growth / cancers tested
Experimental: as §1
The derivatives in the tables are grouped using the same category as in the tables 1-6.

NCI-H460 = experiment: NCI screen, growth of human tumor cells: Non-Small Cell Lung NCI-H460; conditions: NCI-H460 (Non-Small Cell Lung), 10^−4 molar
Experimental: as §1

CCRF-CEM = experiment: NCI screen, growth of human tumor cells: Leukemia CCRF-CEM; conditions: for percent of growth of human tumor cells: CCRF-CEM (Leukemia); for % Growth: CCRF-CEM
Experimental: as §1

SNB-75 = experiment: NCI screen, growth of human tumor cells: CNS Cancer SNB-75; conditions: SNB-75 (CNS Cancer), 10^−4 molar
Experimental: as §1

ACHN = experiment: NCI screen, growth of human tumor cells: Renal Cancer ACHN; conditions: ACHN (Renal Cancer), 10^−4 molar
Experimental: as §1

MOLT-4 = experiment: NCI screen, growth of human tumor cells: Leukemia MOLT-4; conditions: for percent of growth of human tumor cells: MOLT-4 (Leukemia), 10^−4 molar
Experimental: as §1

NCI-H522 = experiment: NCI screen, growth of human tumor cells: Non-Small Cell Lung NCI-H522
Experimental: as §1

HOP-18 = experiment: NCI screen, growth of human tumor cells: Non-Small Cell Lung HOP-18
Experimental: as §1

HOP-92 = experiment: NCI screen, growth of human tumor cells: Non-Small Cell Lung HOP-92
Experimental: as §1

SR = experiment: NCI screen, growth of human tumor cells: Leukemia SR; conditions: SR
Experimental: as §1

SF-539 = experiment: NCI screen, growth of human tumor cells: CNS Cancer SF-539; conditions: for percent of growth of human tumor cells: SF-539 (CNS Cancer), 10^−4 molar
Experimental: as §1

HCT-15 = experiment: NCI screen, growth of human tumor cells: Colon Cancer HCT-15; conditions: HCT-15 (Colon Cancer), 10^−4 molar
Experimental: as §1

SK-MEL-5 = experiment: NCI screen, growth of human tumor cells: Melanoma SK-MEL-5; conditions: SK-MEL-5, 10^−4 molar
Experimental: as §1

K562 = experiment: NCI screen, growth of human tumor cells: Leukemia K562
Experimental: as §1

SF-295 = experiment: NCI screen, growth of human tumor cells: CNS Cancer SF-295; conditions: SF-295 (CNS Cancer), 10^−4 molar
Experimental: as §1

C[Si](C)(OCCS(=O)(=O)O)OC(=C1S(=O)(=O)OCCOS1(=O)=O)c1cccc2ccccc12.[Na+] [NSC 679049]
percent of growth of human tumor cells (OVCAR-3): 22% | percent of growth of human tumor cells (RXF-393; RXF-393 (Renal Cancer), 10^−4 molar): 23%

O=S1(=O)OCCOS(=O)(=O)C1=NNc1c(O)cc(S(=O)(=O)O)c2ccccc12 [NSC 686564]
Percentage of cancers showing negative growth cancers tested (human cancer cells): 10^−4 M conc. = 0/5 = 0% | percent of growth of human tumor cells (NCI-H460): 6% | percent of growth of human tumor cells (CCRF-CEM; 10^−4 molar): 14% | percent of growth of human tumor cells (SNB-75): 7% | percent of growth of human tumor cells (ACHN): 26% | percent of growth of human tumor cells (MOLT-4): 23%

COC=C1S(=O)(=O)OCCOS1(=O)=O [NSC 701691, ethylene 2-methoxy-1,1-ethylenedisulfonate]
% Growth (NCI-H522; NCI-H522, 10^−4 molar): 66% | % Growth (NCI-H522; NCI-H522, 10^−5 molar): 44% | % Growth (NCI-H522; NCI-H522, 10^−6 molar): 67% | % Growth (NCI-H522; NCI-H522, 10^−7 molar): 48% | % Growth (NCI-H522; NCI-H522, 10^−8 molar): 73% | Percentage of cancers showing negative growth cancers tested (human cancer cells): 10^−4 M conc. = 0/6 = 0% | % Growth (HOP-18; HOP-18, 10^−4 molar): 44% | % Growth (HOP-18; HOP-18, 10^−5 molar): 56% | % Growth (HOP-18; HOP-18, 10^−6 molar): 92% | % Growth (HOP-18; HOP-18, 10^−7 molar): 71% | % Growth (HOP-18; HOP-18, 10^−8 molar): 58% | % Growth (HOP-92; HOP-92, 10^−4 molar): 44% | % Growth (HOP-92; HOP-92, 10^−5 molar): 56% | % Growth (HOP-92; HOP-92, 10^−6 molar): 92% | % Growth (HOP-92; HOP-92, 10^−7 molar): 71% | % Growth (HOP-92; HOP-92, 10^−8 molar): 58% | percent of growth of human tumor cells (CCRF-CEM; 10^−4 molar): 24% | % Growth (SR; 10^−4 molar): 12% | % Growth (SR; 10^−5 molar): 49% | % Growth (RXF-393; RXF-393, 10^−4 molar): 23% | % Growth (RXF-393; RXF-393, 10^−5 molar): 55% | % Growth (RXF-393; RXF-393, 10^−6 molar): 60% | % Growth (RXF-393; RXF-393, 10^−7 molar): 68% | % Growth (RXF-393; RXF-393, 10^−8 molar): 63%

O=S1(=O)OCCOS(=O)(=O)C1c1nc(Cl)c(Cl)nc1Cl [NSC 720685]
percent of growth of human tumor cells (NCI-H522; NCI-H522 (Non-Small Cell Lung), 10^−4 molar): −22% | Percentage of cancers showing negative growth cancers tested (human cancer cells): 10^−4 M conc. = 1/4 = 25% | percent of growth of human tumor cells (SF-539): 7% | percent of growth of human tumor cells (HCT-15): 7% | percent of growth of human tumor cells (MOLT-4): 24%

CSC(=NC(=O)c1cn([C@H]2O[C@H](COC(C)=O)[C@H]3OC(C)(C)O[C@H]32)c2ccccc12)SC [NSC 732264]
percent of growth of human tumor cells (HOP-92; HOP-92 (Non-Small Cell Lung), 10^−4 molar): 22%

O=S1(=O)OCCCOS(=O)(=O)C1(Br)Br [compound 665940]
% Growth (SF-539; SF-539, 10^−4 molar): 63% | % Growth (SF-539; SF-539, 10^−5 molar): 99% | % Growth (SF-539; SF-539, 10^−6 molar): 43% | % Growth (SF-539; SF-539, 10^−7 molar): 62% | % Growth (SF-539; SF-539, 10^−8 molar): 47%

CC(=O)O[C@H]1CC[C@]2(C)C3C(=O)C[C@]4(C)[C@@H](C(C)=O)CC[C@@]4(C)[C@@H]3CC[C@H]2C1(C)C (stereo partly drawn) [compound 731278]
% Growth (SK-MEL-5): −78%

ethylene 2-hydroxy-2-solketalyl-ethylene-1,1-disulfonate [NSC 698123]
Percentage of cancers showing negative growth cancers tested (human cancer cells): 10^−4 M conc. = 0/3 = 0% | % Growth (CCRF-CEM; 10^−4 molar): 32% | % Growth (CCRF-CEM; 10^−5 molar): 58% | % Growth (CCRF-CEM; 10^−6 molar): 57% | % Growth (SF-539; SF-539, 10^−4 molar): 42% | % Growth (SF-539; SF-539, 10^−5 molar): 50% | % Growth (K562; K562, 10^−4 molar): 63% | % Growth (K562; K562, 10^−5 molar): 41%

ethylene (2-methyl-2-acetyl)-ethylene-1,1-disulfonate [NSC 698121]
percent of growth of human tumor cells (SF-295): 24% | Percentage of cancers showing negative growth cancers tested (human cancer cells): 10^−4 M conc. = 1/8 = 0% | percent of growth of human tumor cells (NCI-H460): 12% | % Growth (CCRF-CEM; 10^−4 molar): 18% | % Growth (CCRF-CEM; 10^−5 molar): 51% | % Growth (CCRF-CEM; 10^−6 molar): 61% | % Growth (CCRF-CEM; 10^−7 molar): 68% | % Growth (SR; 10^−4 molar): 60% | % Growth (SR; 10^−5 molar): 31% | percent of growth of human tumor cells (SF-539): 18% | percent of growth of human tumor cells (ACHN): 29% | % Growth (MOLT-4; MOLT-4, 10^−4 molar): (85) % | % Growth (MOLT-4; MOLT-4, 10^−5 molar): 46% | % Growth (K562; K562, 10^−4 molar): 54% | % Growth (K562; K562, 10^−5 molar): 59% | % Growth (K562; K562, 10^−6 molar): 54% | % Growth (K562; K562, 10^−7 molar): 52%
